# In patent US10563263B2, “Genetic polymorphisms associated with statin response and cardiovascular diseases, methods of detection and uses thereof” (CELERA CORPORATION, priority 2010, dated 2020):
# Tested on: stroke or transient ischemic attack (TIA)
# Experiment: CARE: stroke (including TIA) statin response by SNP genotype, hazard ratio pravastatin vs placebo (Tables 20-21)
# Assay type: in vivo, human
# Conditions: for EVENTS_RESP (total number of stroke or TIA events): CARE pravastatin arm; for HR_RESP (hazard ratio pravastatin vs placebo, stroke) / HR_RESP (hazard ratio, pravastatin-treated vs placebo-treated): CARE; for HR_RESP (hazard ratio pravastatin vs placebo, stroke): ref = placebo; for HR_RESP (hazard ratio, pravastatin-treated vs placebo-treated): stroke or TIA, pravastatin 40 mg/day
# Excerpt: Tables 20-21 provides SNPs associated with stroke risk and/or stroke statin response (reduction in stroke risk by statin treatment) in the CARE sample set. Consistent with the CARE trial, the stroke endpoint in the analysis for which the results are provided in Tables 20-21 included stroke as well as transient ischemic attack (TIA).
# In Tables 20-22, certain columns are labeled “RESP”, “PLACEBO, OR “ALL”. “RESP” is for statin response as measured by comparing risk (risk for stroke, including TIA, in Tables 20-21, and risk for CHD, specifically recurrent MI, in Table 22) in the pravastatin-treated group with risk in the placebo-treated group, “PLACEBO” is the placebo-treated group, and “ALL” is the combination of the placebo-treated group and the pravastatin-treated group. “RESP” is the analysis to assess statin response in the indicated genotype group.
# “EVENTS” indicates the total number of events (stroke or TIA for Tables 20-21, and recurrent MI for Table 22) in individuals with the indicated genotype.
# “HR” indicates the hazard ratio.
# CARE was a secondary prevention trial and WOSCOPS was a primary prevention trial.
# Table 20 provides SNPs associated with stroke risk and/or stroke statin response in the CARE sample set. For example, SNPs rs10757278 and rs1333049 at chromosomal location 9p21 were associated with a reduction of stroke events by statin treatment in CARE, particularly for heterozygotes (see Table 20). Furthermore, SNPs rs12425791 and rs11833579 at chromosomal location 12p13 near the NINJ2 gene were associated with stroke risk in the placebo arm of CARE (see Table 20). […] Consistent with the CARE trial, the stroke endpoint in the analysis for which the results are provided in Tables 20-21 included stroke as well as transient ischemic attack (TIA).
# Fine-mapping at the chromosome 12p13 locus was carried out by selecting 77 tagging SNPs from a 400 kb region of the chromosome 12p13 locus which covered the NINJ2 gene and other genes, genotyping these 77 SNPs, and further imputing the genotypes of approximately 250 additional SNPs in this region, for individuals in the CARE study. Analyzing these fine-mapping SNPs for association with stroke risk in the placebo arm of CARE and for stroke statin response in CARE identified SNP rs873134 in the B4GALNT3 gene in the chromosome 12p13 region near NINJ2 (see Table 21).
structure (smiles),measurement,setting,value
"CC[C@H](C)C(=O)O[C@H]1C[C@H](O)C=C2C=C[C@H](C)[C@H](CC[C@@H](O)C[C@@H](O)CC(=O)O)[C@H]21 [Pravastatin, pravastatin]",EVENTS_RESP (total number of stroke or TIA events),"rs873134 genotype CC, MODE GEN, of 354 individuals",27
same,EVENTS_RESP (total number of stroke or TIA events),"rs873134 genotype CT + CC, MODE DOM, of 1034 individuals",51
same,EVENTS_RESP (total number of stroke or TIA events),"rs873134 genotype CT + TT, MODE REC, of 1046 individuals",40
same,EVENTS_RESP (total number of stroke or TIA events),"rs873134 genotype CT, MODE GEN, of 680 individuals",24
same,EVENTS_RESP (total number of stroke or TIA events),"rs873134 genotype TT, MODE GEN, of 366 individuals",16
same,"HR_RESP (hazard ratio pravastatin vs placebo, stroke)","rs1333049 (hCV1754666, 9p21), MODE DOM, genotype GC + GG",0.63
same,"HR_RESP (hazard ratio pravastatin vs placebo, stroke)","rs1333049 (hCV1754666, 9p21), MODE GEN, genotype CC",1.11
same,"HR_RESP (hazard ratio pravastatin vs placebo, stroke)","rs1333049 (hCV1754666, 9p21), MODE GEN, genotype GC",0.54
same,"HR_RESP (hazard ratio pravastatin vs placebo, stroke)","rs1333049 (hCV1754666, 9p21), MODE GEN, genotype GG",0.96
same,"HR_RESP (hazard ratio pravastatin vs placebo, stroke)","rs1333049 (hCV1754666, 9p21), MODE REC, genotype GC + CC",0.7
same,"HR_RESP (hazard ratio pravastatin vs placebo, stroke)","rs10757278 (hCV11841860, 9p21), MODE DOM, genotype GA + GG",0.7
same,"HR_RESP (hazard ratio pravastatin vs placebo, stroke)","rs10757278 (hCV11841860, 9p21), MODE GEN, genotype AA",0.9
same,"HR_RESP (hazard ratio pravastatin vs placebo, stroke)","rs10757278 (hCV11841860, 9p21), MODE GEN, genotype GA",0.54
same,"HR_RESP (hazard ratio pravastatin vs placebo, stroke)","rs10757278 (hCV11841860, 9p21), MODE GEN, genotype GG",1.08
same,"HR_RESP (hazard ratio pravastatin vs placebo, stroke)","rs10757278 (hCV11841860, 9p21), MODE REC, genotype GA + AA",0.62
same,"HR_RESP (hazard ratio pravastatin vs placebo, stroke)","rs11833579 (hCV1665834, 12p13), MODE DOM, genotype AG + AA",0.64
same,"HR_RESP (hazard ratio pravastatin vs placebo, stroke)","rs11833579 (hCV1665834, 12p13), MODE GEN, genotype AA",0.26
same,"HR_RESP (hazard ratio pravastatin vs placebo, stroke)","rs11833579 (hCV1665834, 12p13), MODE GEN, genotype AG",0.75
same,"HR_RESP (hazard ratio pravastatin vs placebo, stroke)","rs11833579 (hCV1665834, 12p13), MODE GEN, genotype GG",0.86
same,"HR_RESP (hazard ratio pravastatin vs placebo, stroke)","rs11833579 (hCV1665834, 12p13), MODE REC, genotype AG + GG",0.81
same,"HR_RESP (hazard ratio pravastatin vs placebo, stroke)","rs12425791 (hCV12094896, 12p13), MODE DOM, genotype AG + AA",0.52
same,"HR_RESP (hazard ratio pravastatin vs placebo, stroke)","rs12425791 (hCV12094896, 12p13), MODE GEN, genotype AA",0.28
same,"HR_RESP (hazard ratio pravastatin vs placebo, stroke)","rs12425791 (hCV12094896, 12p13), MODE GEN, genotype AG",0.56
same,"HR_RESP (hazard ratio pravastatin vs placebo, stroke)","rs12425791 (hCV12094896, 12p13), MODE GEN, genotype GG",0.95
same,"HR_RESP (hazard ratio pravastatin vs placebo, stroke)","rs12425791 (hCV12094896, 12p13), MODE REC, genotype AG + GG",0.78
same,"HR_RESP (hazard ratio, pravastatin-treated vs placebo-treated)","rs873134 (hCV2652047) genotype CC, MODE GEN",2.01
same,"HR_RESP (hazard ratio, pravastatin-treated vs placebo-treated)","rs873134 (hCV2652047) genotype CT + CC, MODE DOM",0.83
same,"HR_RESP (hazard ratio, pravastatin-treated vs placebo-treated)","rs873134 (hCV2652047) genotype CT + TT, MODE REC",0.52
same,"HR_RESP (hazard ratio, pravastatin-treated vs placebo-treated)","rs873134 (hCV2652047) genotype CT, MODE GEN",0.5
same,"HR_RESP (hazard ratio, pravastatin-treated vs placebo-treated)","rs873134 (hCV2652047) genotype TT, MODE GEN",0.54
